The nature of this series: Human HepG2 cell viability assay in 384 well format. Format: toxicity, cell-based. The arrangement: dose 125 nL, time 70.5 hour; cytotoxicity at 70.5 h: concentration not given beside the values. The note with it: HepG2 cells, read-out: Inhibition.

Structures are written as SMILES.

Regarding `O=C(c1cc(-c2cccs2)cs1)N1CCSCC1`, the cytotoxicity at 70.5 h is -5.68%.

Turning to `O=C(NCC1CCCO1)c1cc(Sc2ncccn2)ccn1` (stereo unspecified), the cytotoxicity at 70.5 h amounted to 24.8%.

Regarding `Cc1cccc(C(=O)Nc2c(C(=O)N(C)C)nn(C)c2C)c1`, the cytotoxicity at 70.5 h was -3.25%.

On to `Cc1ccc(C(=O)Nc2c(C(=O)N(C)C)nn(C)c2C)cc1C`, for which the cytotoxicity at 70.5 h was -4.41%.

Consider `Cc1nn(C)cc1C(=O)NCc1csc(C2CC2)n1`, for which the cytotoxicity at 70.5 h worked out at 18.9%.

As for `CCn1cc(CCC(=O)NCc2csc(C3CC3)n2)c(C)n1`, the cytotoxicity at 70.5 h is -11.7%.

In the case of `CCn1cc(C(=O)NCc2csc(C3CC3)n2)c(C)n1`, the cytotoxicity at 70.5 h is -3.62%.

In the case of `Cc1ccc2c(cnn2CCC(=O)NCc2csc(C3CC3)n2)c1`, the cytotoxicity at 70.5 h was 22.8%.

As for `Cn1ncc(C(=O)N2CCN(CCS(C)(=O)=O)CC2)c1Cl`, the cytotoxicity at 70.5 h stood at 18.4%.

On to `O=C(c1ccc(-c2ccc(O)nc2)s1)N1CCCCCC1`, for which the cytotoxicity at 70.5 h is -10.4%.

Take `Cc1nc(Nc2nnc(C)s2)cc(C2CCCN2C2CCCC2)n1` (stereo unspecified): the cytotoxicity at 70.5 h was -5.26%.

In the case of `Cc1cnc(N)c(C(=O)C2CCN(C(=O)C3CCC3)CC2)c1`, the cytotoxicity at 70.5 h turned out to be 11.3%.

Regarding `O=C(c1ccncc1)N1CCCC(c2ncncc2-c2ccncc2)C1` (stereo unspecified), the cytotoxicity at 70.5 h is -4.43%.

For the compound `Cc1cc(-c2cnc(N3CCC(O)CC3)nc2-c2cccnc2C)on1`, the cytotoxicity at 70.5 h stood at 8.43%.

For `Cc1cc(-c2cnc(N3CCCCCC3)nc2-c2cccnc2C)on1`, the cytotoxicity at 70.5 h was -12.8%.

Turning to `COc1cc(C2Nc3cc(Cl)ccc3C3=NCCN32)ccc1O` (stereo unspecified), the cytotoxicity at 70.5 h was -8.38%.

Consider `NC(=O)C1CCN(c2ncc(-c3cnccn3)c([C@H]3CCCO3)n2)CC1`, for which the cytotoxicity at 70.5 h was -11.5%.

Turning to `CNc1cncc(C2CCCN2c2cc(C)ncn2)n1` (stereo unspecified), the cytotoxicity at 70.5 h worked out at 17.1%.

On to `CC(=O)N1CCCC(c2ccc(N3CCN(C)CC3)cn2)C1` (stereo unspecified), for which the cytotoxicity at 70.5 h is -3.54%.

For the compound `COc1cccc(CN2CCC(c3nn(CCN)c4nccnc34)C2)c1` (stereo unspecified), the cytotoxicity at 70.5 h came out at 17%.

As for `CN1CCCCC1c1ncc2c(n1)CCN(Cc1ccc(Cl)c(F)c1)C2` (stereo unspecified), the cytotoxicity at 70.5 h is -3.53%.

Regarding `O=C(C1CCCO1)N1CCC(O)(Cn2ccc3ccncc32)CC1` (stereo unspecified), the cytotoxicity at 70.5 h amounted to 15.9%.

For the compound `Cc1cc2c(=O)n3c(nc2s1)CCN(C(=O)c1ccnn1C(C)C)CC3`, the cytotoxicity at 70.5 h was -7.45%.

Turning to `Cc1cc2c(=O)n3c(nc2s1)CCN(C(=O)c1c(C)noc1C)CC3`, the cytotoxicity at 70.5 h is -3.89%.

As for `C[C@@H]1C[C@H](C(F)(F)F)n2nc(C3CCN(S(C)(=O)=O)CC3)cc2N1`, the cytotoxicity at 70.5 h was -2.94%.

Consider `C[C@@H]1C[C@H](C(F)(F)F)n2nc(C3CCN(S(=O)(=O)N(C)C)CC3)cc2N1`, for which the cytotoxicity at 70.5 h is -5.83%.

As for `Cc1ccc(S(=O)(=O)N2C[C@H]3C[C@H](NC(=O)c4cnn(C)c4)[C@H]3C2)cc1`, the cytotoxicity at 70.5 h turned out to be 33.7%.

Regarding `O=S1(=O)NC(C2CCN(Cc3ccncc3)CC2)Nc2ccccc21` (stereo unspecified), the cytotoxicity at 70.5 h amounted to 23.9%.

As for `Cc1cc(-c2cnc(N3CCNC(=O)C3)nc2-c2ccoc2C)on1`, the cytotoxicity at 70.5 h is -6.66%.

`CC(=O)N1CCCC(c2ccc(Cc3ccccc3)cn2)C1` (stereo unspecified): the cytotoxicity at 70.5 h was 20%.

On to `O=C(c1ncccn1)N1C[C@@H]2CC[C@H](Oc3cccc(F)c3)[C@@H]2C1`, for which the cytotoxicity at 70.5 h is -6.95%.

On to `O=C(c1cccnn1)N1C[C@@H]2CC[C@H](Oc3cccc(F)c3)[C@@H]2C1`, for which the cytotoxicity at 70.5 h amounted to 14.9%.

As to `NCc1cnn(-c2ccccc2C(=O)NCCc2ccncc2)c1`, the cytotoxicity at 70.5 h is -7.18%.

Take `Cc1noc(C)c1-c1cncc(C2CCCN2Cc2c[nH]cn2)n1` (stereo unspecified): the cytotoxicity at 70.5 h was -6.81%.

With `Cc1noc(C)c1-c1cncc(C2CCCN2Cc2ncc[nH]2)n1` (stereo unspecified), the cytotoxicity at 70.5 h turned out to be 16.2%.

As for `NCCn1nc(C2CCN(C(=O)Cc3ccccc3)C2)c2nccnc21` (stereo unspecified), the cytotoxicity at 70.5 h is -5.36%.

Regarding `CCCn1ncc(CN2C[C@@H]3CCCN3C[C@H]2CCSC)c1C`, the cytotoxicity at 70.5 h is -1.67%.

On to `COCC(=O)N1CCC(c2cncc(-c3cccc(F)c3)n2)CC1`, for which the cytotoxicity at 70.5 h is -7.23%.

On to `CC(=O)N1CCCN(c2cc(C3CN(C)CCO3)nc(C)n2)CC1` (stereo unspecified), for which the cytotoxicity at 70.5 h was 12%.

On to `OCCN1CCCC(c2nccnc2Oc2ccc(F)cc2)C1` (stereo unspecified), for which the cytotoxicity at 70.5 h was -2.84%.

Take `Cc1nc(Nc2cnccn2)cc(C2CCCN2C2CCOCC2)n1` (stereo unspecified): the cytotoxicity at 70.5 h is -5.63%.

`Cc1c(C(=O)N2CC(Cc3nccc4ccn(C)c34)C2)cnn1C`: the cytotoxicity at 70.5 h was -6.29%.

Turning to `Cc1nc(C2CCCN2C(=O)CC2CCCC2)ncc1C(N)=O` (stereo unspecified), the cytotoxicity at 70.5 h is -4.71%.

`Cc1c[nH]nc1C1CCN(S(=O)(=O)N(C)C)C1` (stereo unspecified): the cytotoxicity at 70.5 h was -8.85%.

Take `CCCn1ccnc1CN1CCN(C2CCOCC2)CC(C(N)=O)C1` (stereo unspecified): the cytotoxicity at 70.5 h was -10.4%.

As for `CNc1cc(C)nc(C2CN(Cc3ccc(Cl)cn3)CCO2)c1` (stereo unspecified), the cytotoxicity at 70.5 h was -5.55%.

Take `COC(=O)c1cc(NC(=O)CCc2cscn2)ccc1C`: the cytotoxicity at 70.5 h was -5.71%.

Consider `Cc1ccc(NC(=O)N2CCOC(C)(c3cnn(C)c3)C2)c(C)c1` (stereo unspecified), for which the cytotoxicity at 70.5 h was -3.64%.

As to `Cn1cc(C2(C)CN(C(=O)Nc3ccccc3F)CCO2)cn1` (stereo unspecified), the cytotoxicity at 70.5 h was -5.13%.

Turning to `Cc1nc(CNC2(C(=O)OC(C)(C)C)CCCC2)oc1C`, the cytotoxicity at 70.5 h is -8.39%.

As for `O=C(c1cnc(-c2ccccc2)s1)N1CCOC2(CCCC2)C1`, the cytotoxicity at 70.5 h was -3.97%.

Regarding `N#Cc1ccc(F)c(CN2CCCC2Cn2cncn2)c1` (stereo unspecified), the cytotoxicity at 70.5 h was -5.36%.

As to `CC(=O)N1CCN(CCCSCc2ccccc2)CC1`, the cytotoxicity at 70.5 h was 6.76%.

In the case of `CS(=O)(=O)N1CCCN(CCCSCc2ccccc2)CC1`, the cytotoxicity at 70.5 h was -8.27%.

Consider `CN(Cc1cc(F)cc2cccnc12)CC1CCN(CCO)CC1`, for which the cytotoxicity at 70.5 h was -8.39%.

For `CC(C)OCCCNC(=O)CN1CCN(c2nccs2)C(C)C1` (stereo unspecified), the cytotoxicity at 70.5 h was determined as 35.5%.

In the case of `CCc1nc2n(n1)CC(NCC1=Cc3ccc(OC)cc3OC1)CC2` (stereo unspecified), the cytotoxicity at 70.5 h stood at 2.24%.

For `Cc1nnc(CN(C)CC(=O)NCCc2ccc(F)cc2)n1C`, the cytotoxicity at 70.5 h is -5.46%.

With `CCN(CC)CCCNC(=O)Nc1c(C)cccc1C(C)C`, the cytotoxicity at 70.5 h was -4.07%.

As to `CN(Cc1noc(C2CC2)n1)C1CCN(CCn2cccn2)C1` (stereo unspecified), the cytotoxicity at 70.5 h was -5.95%.

For the compound `O=c1c2sccc2nc2n1CCN(Cc1ccc(F)c(F)c1)CC2`, the cytotoxicity at 70.5 h is -9.83%.

As for `C[C@H](N)Cn1nc(-c2cccs2)oc1=O`, the cytotoxicity at 70.5 h was -1.53%.

Take `O=C(CN1CCCC1=O)N1CCC(O)(Cn2ccc3ccncc32)CC1`: the cytotoxicity at 70.5 h was -5.71%.

`COc1cccc(CN2CCc3nc4ccsc4c(=O)n3CC2)c1`: the cytotoxicity at 70.5 h is 12.2%.

On to `CCOc1ccccc1CN1CCc2nc3ccsc3c(=O)n2CC1`, for which the cytotoxicity at 70.5 h was -7.1%.

Consider `Cc1nc(C2(O)CCCNCC2)sc1CCOc1ccc(F)c(F)c1` (stereo unspecified), for which the cytotoxicity at 70.5 h was -4.26%.

In the case of `Nc1cnn(CC(=O)N2CCCCC2)c1`, the cytotoxicity at 70.5 h is 3.95%.

Consider `CCOc1cc(CN[C@@H]2COC[C@H]2Cc2cc(C)no2)ccc1O`, for which the cytotoxicity at 70.5 h was -2.12%.

`OC1CCN(Cc2ccnc(-c3cccnc3)n2)CC1`: the cytotoxicity at 70.5 h is -7.13%.

As to `OC1CCCN(Cc2ccnc(-c3cccnc3)n2)C1` (stereo unspecified), the cytotoxicity at 70.5 h is -4.64%.

For the compound `COC(=O)c1ccc(CN[C@@H]2COC[C@H]2Cc2cc(C)no2)cc1`, the cytotoxicity at 70.5 h was -4.83%.
